ChEMBL document CHEMBL3045483, “Chalcones as promising pesticidal agents against diamondback moth (Plutella xylostella): microwave-assisted synthesis and structureactivity relationship” (Med Chem Res, 2012)
Values after ≈ are worked out from the molar mass of the structure shown.

Experiments:
Plutella xylostella [1] = assay: Insecticidal activity against second-instar larvae Plutella xylostella (diamondback moth) in compound treated cabbage leaves assessed as mortality at 5000 ug/mL after 48 hr by leaf dip method; type: functional; conditions: foliar
Plutella xylostella [2] = assay: Insecticidal activity against second-instar larvae Plutella xylostella (diamondback moth) in compound treated cabbage leaves assessed as mortality at 10000 ug/mL after 48 hr by leaf dip method; type: functional; conditions: foliar
Plutella xylostella [3] = assay: Insecticidal activity against second-instar larvae Plutella xylostella (diamondback moth) in compound treated cabbage leaves assessed as mortality after 48 hr by leaf dip method; type: functional; conditions: foliar
[4] = Aqueous solubility of the compound; type: physicochemical; conditions: buffer

Structure (SMILES)	mortality at 5000 µg/mL (Plutella xylostella [1]) [%]	mortality at 10000 µg/mL (Plutella xylostella [2]) [%]	LC50 (Plutella xylostella [3]) [µg/mL]	solubility [4]
COc1ccc(/C=C/C(C)=O)cc1	26.6	30	–	–
O=C(/C=C/c1ccc(Cl)cc1)c1ccc(Cl)cc1 [4',4-DICHLOROCHALCONE]	100	100	170 (≈ 614 µM)	–
COc1ccc(C(=O)/C=C/c2ccc(Cl)c(Cl)c2)cc1	100	100	288 (≈ 936 µM)	–
COc1ccccc1C(=O)/C=C/c1ccc(Cl)c(Cl)c1	50	63.3	–	–
O=C(/C=C/c1ccc(Cl)c(Cl)c1)c1ccc(Cl)cc1	60	97.7	–	–
COc1ccc(C(=O)/C=C/c2ccc(Br)cc2)cc1	3.3	10	–	–
COc1ccc(C(=O)/C=C/c2ccc(Cl)cc2)cc1	100	100	356 (≈ 1310 µM)	–
COc1cc(/C=C/C(C)=O)ccc1O [DEHYDROZINGERONE]	–	–	–	Insoluble
Cc1ccc(C(=O)/C=C/c2ccc(Cl)c(Cl)c2)cc1	60	83.3	–	–
O=C(/C=C/c1ccc(Cl)cc1)c1ccc2c(c1)OCO2	13.3	23	–	–
COc1cccc(C(=O)/C=C/c2ccc(Cl)c(Cl)c2)c1	–	–	–	Insoluble
O=C(/C=C/c1ccc(Cl)cc1)c1ccc([N+](=O)[O-])cc1	20	26.6	–	–
O=C(/C=C/c1cccs1)c1ccc([N+](=O)[O-])cc1	23.3	30	–	–
O=C(/C=C/c1ccc(Cl)c(Cl)c1)c1ccc(Cl)c(Cl)c1	46.6	73.3	–	–
O=C(/C=C/c1ccc(Cl)cc1)c1ccc(O)cc1	100	100	871 (≈ 3370 µM)	–
COc1ccc(C(=O)/C=C/c2cccc3ccccc23)cc1	–	–	–	Insoluble
COc1ccc(/C=C/C(=O)c2ccc(OC)cc2)cc1 [4,4'-DIMETHOXYCHALCONE]	16.6	26.6	–	–
COc1ccc(C(=O)/C=C/c2ccc(F)cc2)cc1	26.6	33.3	–	–
CC1(C)[C@H](C(=O)O[C@H](C#N)c2cccc(Oc3ccccc3)c2)[C@@H]1C=C(Br)Br [DELTAMETHRIN]	–	–	6.25 (≈ 12.4 µM)	–
COc1ccc(C(=O)/C=C/c2ccc(Cl)cc2Cl)cc1	100	100	278 (≈ 907 µM)	–
C=CCOc1ccc(C(=O)/C=C/c2ccc(Cl)cc2)cc1	100	100	268 (≈ 898 µM)	–
O=C(/C=C/c1ccco1)c1ccc([N+](=O)[O-])cc1	16.6	23	–	–
COc1ccc(C(=O)/C=C/c2ccc(Cl)c(Cl)c2)cc1OC	46.6	68	–	–
COc1cc(C(=O)/C=C/c2ccc(Cl)c(Cl)c2)cc(OC)c1OC	–	–	–	Insoluble
COc1ccc(/C=C/C(=O)c2ccc(Cl)cc2)cc1	26.6	50	–	–
COc1cc(OC)c(OC)cc1/C=C/C(C)=O	0	26.6	–	–
